Assay results reported in ChEMBL document CHEMBL1134976, “SB-656104-A: a novel 5-HT(7) receptor antagonist with improved in vivo properties” (Bioorg Med Chem Lett, 2002).
pKi: −log10 of the molar value.

Tests used:
[1] = molecular target: T1, 5-hydroxytryptamine receptor 7 (Homo sapiens, UniProt P34969); test: Binding affinity for human cloned 5-hydroxytryptamine 7 receptor in HEK 293 using [3H]5-CT as a radioligand; type: cell-based, HEK293
[2] = molecular target: T2, Alpha-1B adrenergic receptor (Homo sapiens, UniProt P35368); test: Binding affinity towards Alpha-1B adrenergic receptor
T2 sequence (P35368 whole entry): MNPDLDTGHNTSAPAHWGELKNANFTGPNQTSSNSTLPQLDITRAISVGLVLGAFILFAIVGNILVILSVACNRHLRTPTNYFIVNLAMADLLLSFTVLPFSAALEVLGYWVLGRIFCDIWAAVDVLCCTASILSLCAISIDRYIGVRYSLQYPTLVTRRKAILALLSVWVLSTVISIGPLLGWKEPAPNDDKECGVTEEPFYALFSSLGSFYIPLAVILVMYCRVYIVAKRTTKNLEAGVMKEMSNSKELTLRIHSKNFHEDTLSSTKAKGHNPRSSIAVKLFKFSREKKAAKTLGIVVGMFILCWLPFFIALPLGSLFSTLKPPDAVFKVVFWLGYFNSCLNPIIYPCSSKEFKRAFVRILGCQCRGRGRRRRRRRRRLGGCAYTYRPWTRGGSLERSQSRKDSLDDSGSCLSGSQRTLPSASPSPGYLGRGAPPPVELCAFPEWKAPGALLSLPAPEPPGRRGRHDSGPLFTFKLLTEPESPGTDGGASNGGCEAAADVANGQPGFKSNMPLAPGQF

[3] = Half life was determined; type: ADME, organism-based; conditions: rat, in vivo
Cavia porcellus [4] = test: Effective dose to antagonise 5-CT induced hypothermia in guinea pig at 1 hour after intraperitoneal administration; conditions: ip
[5] = Steady state brain :blood ratio was determined; type: ADME, organism-based; conditions: rat, brain and blood
[6] = Compound was tested for the lower blood clearance in rat; type: ADME, organism-based; conditions: read-out: CLb
[7] = molecular target: 5-hydroxytryptamine receptor 1B (Homo sapiens, UniProt P28222); test: Compound was tested for its binding affinity for human cloned 5-hydroxytryptamine 1B receptor in CHO using [3H]5-HT as a radioligand
5-hydroxytryptamine receptor 1B, sequence (P28222 whole entry): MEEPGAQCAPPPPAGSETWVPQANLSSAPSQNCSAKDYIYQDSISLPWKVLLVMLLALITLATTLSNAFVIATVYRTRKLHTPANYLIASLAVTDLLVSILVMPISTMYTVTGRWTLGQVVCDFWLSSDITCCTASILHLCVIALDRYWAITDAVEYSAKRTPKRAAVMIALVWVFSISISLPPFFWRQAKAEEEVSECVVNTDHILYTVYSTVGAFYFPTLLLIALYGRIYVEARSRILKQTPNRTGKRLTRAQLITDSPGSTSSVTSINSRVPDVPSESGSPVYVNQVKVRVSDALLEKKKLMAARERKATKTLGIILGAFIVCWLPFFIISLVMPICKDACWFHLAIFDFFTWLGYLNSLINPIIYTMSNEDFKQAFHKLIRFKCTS

[8] = molecular target: 5-hydroxytryptamine receptor 4 (Homo sapiens, UniProt Q13639); test: Compound was tested for its binding affinity for 5-hydroxytryptamine 4 receptor
5-hydroxytryptamine receptor 4, sequence (Q13639 whole entry): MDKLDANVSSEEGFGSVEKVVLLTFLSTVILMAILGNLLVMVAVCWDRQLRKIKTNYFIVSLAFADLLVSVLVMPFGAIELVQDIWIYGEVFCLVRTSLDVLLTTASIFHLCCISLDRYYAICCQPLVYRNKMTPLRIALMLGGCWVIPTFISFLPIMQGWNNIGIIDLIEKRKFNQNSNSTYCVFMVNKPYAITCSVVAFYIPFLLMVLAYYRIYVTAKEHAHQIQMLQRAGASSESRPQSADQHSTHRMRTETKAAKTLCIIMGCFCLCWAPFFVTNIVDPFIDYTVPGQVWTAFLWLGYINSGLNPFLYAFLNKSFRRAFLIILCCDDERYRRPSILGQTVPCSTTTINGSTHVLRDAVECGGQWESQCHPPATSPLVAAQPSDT

[9] = molecular target: 5-hydroxytryptamine receptor 5A (Homo sapiens, UniProt P47898); test: Compound was tested for its binding affinity in 5-hydroxytryptamine 5A receptor (using human cloned receptors in HEK 293 and [3H]5-CTas a radioligand ); type: cell-based, HEK293
5-hydroxytryptamine receptor 5A, sequence (P47898 whole entry): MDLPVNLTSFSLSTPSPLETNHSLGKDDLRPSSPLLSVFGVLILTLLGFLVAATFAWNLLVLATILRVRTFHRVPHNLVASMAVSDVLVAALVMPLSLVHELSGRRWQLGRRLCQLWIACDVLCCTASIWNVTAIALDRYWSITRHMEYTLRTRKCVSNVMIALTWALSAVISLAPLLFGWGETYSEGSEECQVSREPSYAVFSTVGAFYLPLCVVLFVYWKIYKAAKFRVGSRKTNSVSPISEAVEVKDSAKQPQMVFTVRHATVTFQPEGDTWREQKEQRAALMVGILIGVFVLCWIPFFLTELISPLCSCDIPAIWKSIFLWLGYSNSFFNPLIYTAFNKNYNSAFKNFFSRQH

[10] = molecular target: 5-hydroxytryptamine receptor 1D (Homo sapiens, UniProt P28221); test: Compound was tested for its binding affinity for human cloned 5-hydroxytryptamine 1D receptor in CHO using [3H]5-HT as a radioligand
5-hydroxytryptamine receptor 1D, sequence (P28221 whole entry): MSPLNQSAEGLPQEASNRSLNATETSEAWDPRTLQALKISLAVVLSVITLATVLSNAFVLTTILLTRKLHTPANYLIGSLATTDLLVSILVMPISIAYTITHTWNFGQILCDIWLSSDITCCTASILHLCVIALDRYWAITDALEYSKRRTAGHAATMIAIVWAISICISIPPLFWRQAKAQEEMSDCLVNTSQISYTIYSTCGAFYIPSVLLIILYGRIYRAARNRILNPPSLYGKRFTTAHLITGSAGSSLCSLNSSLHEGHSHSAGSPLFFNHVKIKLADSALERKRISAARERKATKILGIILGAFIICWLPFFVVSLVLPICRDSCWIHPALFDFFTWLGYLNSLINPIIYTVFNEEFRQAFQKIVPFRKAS

[11] = Oral bioavailability in rat; type: ADME, organism-based; conditions: in vivo
[12] = molecular target: T1, 5-hydroxytryptamine receptor 7; test: Compound was tested for its binding affinity in 5-hydroxytryptamine 7 receptor (using human cloned receptors in HEK 293 and [3H]5-CT as a radioligand ); type: cell-based, HEK293
[13] = molecular target: T3, 5-hydroxytryptamine receptor 1A (Homo sapiens, UniProt P08908); test: Compound was tested for its binding affinity for human cloned 5-hydroxytryptamine 1A receptor in HEK 293 using [3H]5-CT as a radioligand; type: cell-based, HEK293
T3 sequence (P08908 whole entry): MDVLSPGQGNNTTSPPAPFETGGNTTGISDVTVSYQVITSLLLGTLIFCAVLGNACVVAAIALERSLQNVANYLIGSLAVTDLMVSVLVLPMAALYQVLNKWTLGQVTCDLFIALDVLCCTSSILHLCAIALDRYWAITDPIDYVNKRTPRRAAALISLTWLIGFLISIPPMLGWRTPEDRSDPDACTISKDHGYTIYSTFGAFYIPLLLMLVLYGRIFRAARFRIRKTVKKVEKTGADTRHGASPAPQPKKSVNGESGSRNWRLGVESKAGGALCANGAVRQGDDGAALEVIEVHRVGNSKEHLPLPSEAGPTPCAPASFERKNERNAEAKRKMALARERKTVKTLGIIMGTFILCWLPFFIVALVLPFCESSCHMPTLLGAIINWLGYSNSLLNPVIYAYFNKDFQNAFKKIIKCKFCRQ

[14] = molecular target: 5-hydroxytryptamine receptor 2A (Homo sapiens, UniProt P28223); test: Compound was tested for its binding affinity for human cloned 5-hydroxytryptamine 2A receptor in HEK 293 using [3H]ketanserin as a radioligand; type: cell-based, HEK293
5-hydroxytryptamine receptor 2A, sequence (P28223 whole entry): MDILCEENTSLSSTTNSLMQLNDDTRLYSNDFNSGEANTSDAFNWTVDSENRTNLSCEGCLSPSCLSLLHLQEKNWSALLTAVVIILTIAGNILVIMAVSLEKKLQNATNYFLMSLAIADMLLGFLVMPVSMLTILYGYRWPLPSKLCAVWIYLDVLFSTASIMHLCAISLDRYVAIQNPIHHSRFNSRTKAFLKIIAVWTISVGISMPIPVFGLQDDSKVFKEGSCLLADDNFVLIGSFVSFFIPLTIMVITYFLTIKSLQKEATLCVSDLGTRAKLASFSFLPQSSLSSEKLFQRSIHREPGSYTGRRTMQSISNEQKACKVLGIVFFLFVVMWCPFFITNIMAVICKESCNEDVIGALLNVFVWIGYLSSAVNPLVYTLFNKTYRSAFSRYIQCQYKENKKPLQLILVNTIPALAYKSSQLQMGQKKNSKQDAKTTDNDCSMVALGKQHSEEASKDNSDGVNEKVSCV

[15] = molecular target: 5-hydroxytryptamine receptor 6 (Homo sapiens, UniProt P50406); test: Compound was tested for its binding affinity in 5-hydroxytryptamine 6 receptor (using human cloned receptors in HeLa and [3H]LSD as a radioligand )
5-hydroxytryptamine receptor 6, sequence (P50406 whole entry): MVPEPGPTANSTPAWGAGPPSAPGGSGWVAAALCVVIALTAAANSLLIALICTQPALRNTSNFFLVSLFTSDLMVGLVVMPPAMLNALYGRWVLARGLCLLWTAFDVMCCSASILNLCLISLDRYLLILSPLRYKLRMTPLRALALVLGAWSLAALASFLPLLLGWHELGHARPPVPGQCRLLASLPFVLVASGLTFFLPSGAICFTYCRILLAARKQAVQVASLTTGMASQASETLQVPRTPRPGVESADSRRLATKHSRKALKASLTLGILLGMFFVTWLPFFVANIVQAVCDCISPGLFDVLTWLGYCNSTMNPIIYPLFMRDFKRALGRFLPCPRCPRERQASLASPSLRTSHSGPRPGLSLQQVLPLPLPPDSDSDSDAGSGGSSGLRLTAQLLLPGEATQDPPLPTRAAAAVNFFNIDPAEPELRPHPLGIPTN

[16] = molecular target: 5-hydroxytryptamine receptor 2B (Homo sapiens, UniProt P41595); test: Compound was tested for its binding affinity for human cloned 5-hydroxytryptamine 2B receptor in HEK 293 using [3H]ketanserin as a radioligand; type: cell-based, HEK293
5-hydroxytryptamine receptor 2B, sequence (P41595 whole entry): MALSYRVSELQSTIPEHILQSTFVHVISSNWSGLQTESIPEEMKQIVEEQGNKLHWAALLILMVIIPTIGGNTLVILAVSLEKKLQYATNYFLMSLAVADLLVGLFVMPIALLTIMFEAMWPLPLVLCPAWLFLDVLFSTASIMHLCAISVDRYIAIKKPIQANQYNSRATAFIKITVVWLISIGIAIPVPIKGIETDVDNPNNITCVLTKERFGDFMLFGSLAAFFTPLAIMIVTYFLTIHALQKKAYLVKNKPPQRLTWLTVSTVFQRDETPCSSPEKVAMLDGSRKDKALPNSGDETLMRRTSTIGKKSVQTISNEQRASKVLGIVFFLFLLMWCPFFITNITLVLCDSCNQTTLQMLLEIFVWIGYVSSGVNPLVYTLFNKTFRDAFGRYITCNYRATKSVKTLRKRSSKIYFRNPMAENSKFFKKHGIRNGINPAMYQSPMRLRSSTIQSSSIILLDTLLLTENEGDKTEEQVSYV

[17] = molecular target: T4, 5-hydroxytryptamine receptor 1F (Homo sapiens, UniProt P30939); test: Compound was tested for its binding affinity for human cloned 5-hydroxytryptamine 1F receptor in CHO using [3H]5-HT as a radioligand
T4 sequence (P30939 whole entry): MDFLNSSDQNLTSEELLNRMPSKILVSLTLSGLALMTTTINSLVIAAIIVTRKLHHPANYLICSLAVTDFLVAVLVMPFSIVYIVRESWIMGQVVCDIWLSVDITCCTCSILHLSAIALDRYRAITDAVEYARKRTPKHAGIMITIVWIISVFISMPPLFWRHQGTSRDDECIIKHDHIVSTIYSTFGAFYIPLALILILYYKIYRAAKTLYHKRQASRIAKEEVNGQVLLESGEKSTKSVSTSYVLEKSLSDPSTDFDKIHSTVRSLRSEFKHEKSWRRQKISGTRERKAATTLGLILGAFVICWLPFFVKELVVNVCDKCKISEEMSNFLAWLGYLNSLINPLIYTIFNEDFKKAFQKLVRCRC

[18] = molecular target: 5-hydroxytryptamine receptor 1E (Homo sapiens, UniProt P28566); test: Compound was tested for its binding affinity for human cloned 5-hydroxytryptamine 1E receptor in CHO using [3H]5-HT as a radioligand
5-hydroxytryptamine receptor 1E, sequence (P28566 whole entry): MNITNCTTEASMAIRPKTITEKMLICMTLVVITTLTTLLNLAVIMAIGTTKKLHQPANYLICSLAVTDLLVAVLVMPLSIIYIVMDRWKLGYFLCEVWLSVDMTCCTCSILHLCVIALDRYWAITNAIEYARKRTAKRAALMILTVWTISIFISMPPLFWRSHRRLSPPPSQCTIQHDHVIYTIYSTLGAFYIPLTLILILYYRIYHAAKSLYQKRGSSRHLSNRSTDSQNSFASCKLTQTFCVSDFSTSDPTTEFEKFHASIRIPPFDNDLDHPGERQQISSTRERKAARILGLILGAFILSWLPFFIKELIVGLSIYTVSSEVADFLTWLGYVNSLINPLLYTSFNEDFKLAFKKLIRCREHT

Cavia porcellus [19] = organism: Cavia porcellus; test: Effective dose to antagonise 5-CT induced hypothermia in guinea pig at 2 hours; type: functional
[20] = molecular target: T5, 5-hydroxytryptamine receptor 2C (Homo sapiens, UniProt P28335); test: Compound was tested for its binding affinity for human cloned 5-hydroxytryptamine 2C receptor in HEK 293 using [3H]mesulergine as a radioligand; type: cell-based, HEK293
T5 sequence (P28335 whole entry): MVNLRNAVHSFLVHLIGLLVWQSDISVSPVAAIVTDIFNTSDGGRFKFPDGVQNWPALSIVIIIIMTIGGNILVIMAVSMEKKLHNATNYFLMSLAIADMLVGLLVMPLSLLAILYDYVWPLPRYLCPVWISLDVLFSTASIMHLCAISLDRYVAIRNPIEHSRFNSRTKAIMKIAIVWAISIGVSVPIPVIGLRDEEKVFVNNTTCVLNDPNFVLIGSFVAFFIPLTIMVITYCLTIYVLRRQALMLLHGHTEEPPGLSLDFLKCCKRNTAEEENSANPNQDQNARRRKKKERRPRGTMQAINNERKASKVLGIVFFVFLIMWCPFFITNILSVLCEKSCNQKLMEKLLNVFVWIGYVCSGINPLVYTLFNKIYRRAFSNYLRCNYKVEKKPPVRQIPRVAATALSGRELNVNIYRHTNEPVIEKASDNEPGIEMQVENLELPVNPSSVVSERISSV

T1 sequence (P34969 whole entry): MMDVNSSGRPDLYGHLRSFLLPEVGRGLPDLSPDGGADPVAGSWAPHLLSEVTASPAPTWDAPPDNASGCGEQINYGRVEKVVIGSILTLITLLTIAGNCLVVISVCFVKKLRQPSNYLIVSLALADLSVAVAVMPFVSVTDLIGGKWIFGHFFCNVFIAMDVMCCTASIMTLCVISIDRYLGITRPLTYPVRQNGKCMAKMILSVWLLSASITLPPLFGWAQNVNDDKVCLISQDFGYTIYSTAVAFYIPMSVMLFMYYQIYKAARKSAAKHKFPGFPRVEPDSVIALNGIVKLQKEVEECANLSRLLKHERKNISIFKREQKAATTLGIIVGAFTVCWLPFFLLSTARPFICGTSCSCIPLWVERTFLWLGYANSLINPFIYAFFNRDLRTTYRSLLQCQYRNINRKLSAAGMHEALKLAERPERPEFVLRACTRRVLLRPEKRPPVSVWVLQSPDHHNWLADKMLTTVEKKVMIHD

Row | SMILES | pKi [1] | pKi [2] | further results
1 | CC1CCN(CC[C@H]2CCCN2S(=O)(=O)c2ccc3c[nH]nc3c2)CC1 | 8.19 | – | –
2 | CC1CCN(CC[C@H]2CCCN2S(=O)(=O)c2ccc3oc(O)nc3c2)CC1 | 6.78 | – | –
3 | CC1CCN(CC[C@H]2CCCN2S(=O)(=O)c2ccc3[nH]c(O)nc3c2)CC1 | 7.24 | – | –
4 | CC1CCN(CC[C@H]2CCCN2S(=O)(=O)c2ccc3[nH]nnc3c2)CC1 | 7.59 | – | –
5 | CC1CCN(CC[C@H]2CCCN2S(=O)(=O)c2ccc3[nH]cnc3c2)CC1 | 8.19 | – | –
6 | CC1CCN(CC[C@H]2CCCN2S(=O)(=O)c2ccc3c(c2)NCC3)CC1 | 7.64 | – | –
7 | CC1CCN(CC[C@H]2CCCN2S(=O)(=O)c2cccc(O)c2)CC1.Cl | – | – | half-life [3]: < 0.5 h; ED50 (Cavia porcellus [4]): 3 mg/kg; Kp [5]: 0.8; clearance [6]: 140 mL/min/kg
8 | O=S(=O)(c1ccc2cc[nH]c2c1)N1CCC[C@@H]1CCN1CCC(Oc2ccc(Cl)cc2)CC1 | – | – | pKi [7]: 6.20; pKi [8]: 5.72; half-life [3]: 2 h; pKi [9]: 6.74; pKi [10]: 7.60; bioavailability [11]: 16%; pKi [12]: 8.70; pKi [13]: 6.25; pKi [14]: 7.20; Kp [5]: 0.9; pKi [15]: 6.07; pKi [16]: 7.04; clearance [6]: 57 mL/min/kg; pKi [17]: < 5.70; pKi [18]: < 5.30; ED50 (Cavia porcellus [19]): 2 mg/kg; pKi [20]: 6.57

Further molecules by rising pKi [1], results first:

Row | pKi [1] | pKi [2] | SMILES | further results
9 | 8.20 | 7.05 | O=S(=O)(c1ccc2cc[nH]c2c1)N1CCC[C@@H]1CCN1CCC(c2cc3ccccc3[nH]2)CC1 | –
10 | 8.62 | < 5.00 | CC1CCN(CC[C@H]2CCCN2S(=O)(=O)c2ccc3cc[nH]c3c2)CC1 | –
11 | 8.74 | 6.51 | O=c1oc2ccccc2n1C1CCN(CC[C@H]2CCCN2S(=O)(=O)c2ccc3cc[nH]c3c2)CC1 | –
12 | 9.08 | 7.72 | O=C(c1ccc(F)cc1)C1CCN(CC[C@H]2CCCN2S(=O)(=O)c2ccc3cc[nH]c3c2)CC1 | –
13 | 9.10 | 7.03 | O=C(c1ccc(Cl)cc1)C1CCN(CC[C@H]2CCCN2S(=O)(=O)c2ccc3cc[nH]c3c2)CC1 | –
14 | 9.15 | 7.36 | O=S(=O)(c1ccc2cc[nH]c2c1)N1CCC[C@@H]1CCN1CCC(n2c(O)nc3ccccc32)CC1 | –
15 | 9.17 | 8.89 | O=S(=O)(c1ccc2cc[nH]c2c1)N1CCC[C@@H]1CCN1CCC(c2c[nH]c3ccccc23)CC1 | –
16 | 9.30 | 7.52 | O=S(=O)(c1ccc2cc[nH]c2c1)N1CCC[C@@H]1CCN1CCC(Oc2ccc(F)cc2)CC1 | –
